Measurements published in publication PMC7287649, “Hypoxia-Activated Prodrug Derivatives of Carbonic Anhydrase Inhibitors in Benzenesulfonamide Series: Synthesis and Biological Evaluation” (Molecules, 2020).
Several values for one entry are separate records, joined by “and”; a condition that tells them apart may be missing. Equal values may be shown once. Entries after “also recorded” stand apart in the source; their conditions may differ. Read-outs that look alike come from different tables or passages of the source.

Experiments:
zebrafish larvae [1] = assay: phenotypic analysis of zebrafish larvae; format: in vivo; conditions: for adverse effects on observable phenotypic parameters of the larvae: 20 μM–2 mM, 5 days post exposure; for phenotypic defects: at lower concentrations compared to 1b; for swim bladder development: at 5 days
Method: (§1) The hypoxia-activated prodrugs were screened for their toxicity using 24-h post-fertilization zebrafish embryos as described earlier. The compounds were either dissolved in Embryonic medium (5.0 mM NaCl, 0.17 mM KCl, 0.33 mM CaCl2, 0.33 mM MgSO4, and 0.1% w/v Methylene Blue (Sigma-Aldrich, Darmstadt, Germany) or in dimethyl sulfoxide (DMSO) (Sigma-Aldrich, St. Louis, MO, USA) to prepare 100 mM stock solutions. Before the start of each experiment, the series of dilutions were made from the above stock in the embryonic medium.
(§2) The wild-type adult zebrafish (AB strains) were maintained at 28.5 °C in an incubator [35]. In each breeding tank, about embryos 3–5 pairs of male and female fish were set up overnight for collecting the embryos. The following morning, 1–2-h post-fertilization (hpf) embryos were collected in a sieve and rinsed with embryonic medium and kept the collected embryos in an incubator at 28.5 °C overnight. The toxicity evaluation studies of the compounds were performed using the fish that were 24-hpf. All the zebrafish experiments were performed at the zebrafish core facility, Tampere University, Finland, and according to the protocol used in our laboratory.
After exposure to the prodrugs, we evaluated the effects of these compound on the zebrafish larvae by analyzing the following eight phenotypic parameters: (1) mortality, (2) hatching (3) edema (4) swimming pattern, (5) yolk sack utilization, (6) heartbeat, (7) body shape, and (8) swim bladder development. The images of the developing larvae were taken using a Lumar V1.12 fluorescence microscope (Carl Zeiss MicroImaging GmbH, Göttingen, Germany) attached to a camera with a 1.5 lens (Carl Zeiss MicroImaging GmbH, Göttingen, Germany). The images were analyzed with AxioVision software versions 4.7 and 4.8 as described in our standard protocol for the assessment of the toxicity and safety of chemical compounds.

hCA I = hCA I (Homo sapiens, UniProt P00915); assay: stopped flow CO2 hydrase assay, hCA I
Chain of hCA I (P00915 whole entry): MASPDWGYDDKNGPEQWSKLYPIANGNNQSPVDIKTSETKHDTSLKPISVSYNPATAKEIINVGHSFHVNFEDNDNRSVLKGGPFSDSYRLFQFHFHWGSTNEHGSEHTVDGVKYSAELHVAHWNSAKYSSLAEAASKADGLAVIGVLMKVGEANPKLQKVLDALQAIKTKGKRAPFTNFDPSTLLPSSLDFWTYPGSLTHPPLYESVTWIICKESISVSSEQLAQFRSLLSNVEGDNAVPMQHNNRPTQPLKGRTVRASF
Method: (§8) An Sx.18Mv-R Applied Photophysics (Oxford, UK) stopped-flow instrument was used for assaying the CA catalyzed CO2 hydration activity. […] In particular, CO2 was bubbled in distilled deionized water for 30 min so that the water was saturated (the concentration at a specific temperature is known from literature). In addition, a CO2 assay kit (from Merck, Darmstadt, Germany) was used to measure the concentration in variously diluted solutions obtained from the saturated one (which was kept at the same temperature and a constant bubbling during the experiments). […] The uncatalyzed rates were determined in the same manner and subtracted from the total observed rates. Stock solutions of inhibitor (0.1 mM) were prepared in distilled deionized water and dilutions up to 0.01 nM were done thereafter with distilled deionized water. Inhibitor and enzyme solutions were pre-incubated together for 15 min–2 h (or longer, i.e., 4–6 h) at room temperature (at 4 °C for the incubation periods longer than 15 min) prior to assay, in order to allow for the formation of the EI complex. The inhibition constants were obtained by non-linear least-squares methods using PRISM 3 and the Cheng–Prusoff equation, as reported earlier [38, 39], and represent the mean from at least three different determinations. hCA I was purchased by Merck (Darmstadt, Germany) and used without further purification, whereas all the other hCA isoforms were recombinant ones obtained in-house as reported earlier [40].

hCA II = hCA II (Homo sapiens, UniProt P00918); assay: stopped flow CO2 hydrase assay, hCA II
Method: as §8

hCA IX = hCA IX (Homo sapiens, UniProt Q16790); assay: stopped flow CO2 hydrase assay, hCA IX; conditions: for Selectivity Ratio KI hCA II/KI hCA IX: hCA II over hCA IX
Method: as §8

HT29 cells [2] = assay: alamarBlue cell viability assay, HT29; format: cell-based, human; conditions: for IC50: Homo sapiens, HT-29
Method: (§3) Human colorectal HCT116 and HT29 carcinoma cells were cultured in Dulbecco’s Modified Eagle Medium (DMEM, Lonza) supplemented with 10% fetal bovine serum and 1% PenStrep. Cells were exposed to anoxic conditions for 24 h in a hypoxic chamber (MACS VA500 microaerophilic workstation, Don Whitley Scientific, Bingley, UK) with an atmosphere consisting of ≤0.02% O2, 5% CO2 and residual N2. Normoxic cells were grown in regular incubators with 21% O2, 5% CO2 at 37 °C.
(§4) The cytotoxic efficacy of the bio-reducible derivatives was determined based on cell viability assays using alamarBlue® (Invitrogen). In short, HT29 and HCT116 were seeded in 96-well plates and allowed to attach overnight. On the following day, the plates were exposed to normoxia or anoxia and medium was replaced with pre-incubated normoxic or anoxic DMEM. Compounds were dissolved in DMSO (0.5%, Sigma-Aldrich) and final concentrations were made with pre-incubated anoxic or normoxic DMEM and added to the wells after 24 h of exposure. Cells were exposed to compounds for a total of 2 h, after which the medium was washed off and replaced with fresh medium. Cells were allowed to grow for an additional 72 h under normoxic conditions prior to measurement. Cells were incubated with alamarBlue® for 2 h during normoxic conditions, which corresponds with their metabolic function, a measure for cell viability. Fluorescence was measured using plate reader (FLUOstar Omega, BMG LABTECH, Ortenberg, Germany) using a fluorescence excitation wavelength of 540–580 nm.
(§5) GraphPad Prism (version 5.03, GraphPad Software, San Diego, CA, USA) was used for all statistical analyses. For the cytotoxic compounds, IC50 values were estimated with the curve of the log (inhibitor) vs. normalized response (Variable slope).

HCT116 cells [3] = assay: alamarBlue cell viability assay, HCT116; format: cell-based, human; conditions: for IC50: 2 h exposure, 72 h regrowth
Method: as §3, §4, §5

[4] = zebrafish embryo lethality (LC50); format: in vivo; conditions: AB, zebrafish, in vivo, zebrafish embryos from 24 hpf, end of 5 days of exposure
Method: as §1, §2
(§6) The LC50 values for all the three prodrugs were determined using 24-hpf embryos using […] different concentrations for each compound. We used a minimum of 30 zebrafish larvae for each concentration of the compound [28, 30, 36, 42]. The 24-hpf larvae were exposed to different concentrations of the inhibitors that ranged from 20 μM to […]. A dose response curve (DRC) was calculated using the DRM (model fitting function) of the DRC R package. The control group constituted an equal number of larvae not treated with any compound and the larvae that were treated with 1% DMSO. Toxicological evaluation studies were performed in 24-well plates (Corning V R Costar V R cell culture plates). In each well, we placed 1–2 24-hpf embryos in 1 mL of embryonic medium containing a diluted inhibitor. For control groups, 1% DMSO diluted in either embryonic medium or embryonic medium with no chemical compound. A minimum of three sets of experiments were carried out for each prodrug. The mortality of the larvae was checked every 24 h until 5 days after exposure to the prodrugs.

zebrafish embryos = assay: zebrafish embryo lethality (LC50); format: in vivo
Method: as §1, §2, §6

zebrafish larvae [5] = conditions: 100 μM; cited from earlier work
HT29 cells [6] = assay: clonogenic assay, HT29; format: cell-based, human; conditions: HT29, normoxia or anoxia, tested concentrations (10 to 100 μM), 30 min exposure
Method: as §3
(§7) Clonogenic survival HT29 and HCT116 cells were seeded with a high density for CA IX-dependent extracellular acidification. […] These cells were exposed to 23:30 h normoxic or anoxic conditions and 30 min to drugs after which cells were trypsinized and reseeded in triplicate with known cell numbers. Cells were allowed to grow for 9 (HCT116) and 14 (HT29) days to form colonies that were quantified after staining and fixation with 0.4% methylene blue in 70% ethanol. Surviving fractions were calculated and compared to control survival curves produced in the same experiment without compound treatment.

HCT116 cells [7] = assay: clonogenic assay, HCT116; format: cell-based, human; conditions: HCT116, normoxia or anoxia, tested concentrations (10 to 100 μM), 30 min exposure
Method: as §3, §7

zebrafish larvae [8] = assay: swim pattern analysis of zebrafish larvae; format: in vivo; conditions: 160 µM (concentration that did not induce phenotypic defects), end of 5 days of exposure
Method: The swim pattern of the zebrafish larvae was studied after 5 days of exposure to these compounds. For the analyses of swim pattern, about 15–20 zebrafish larvae after 5 days of exposure to the compounds were placed in a 35 mm × 15 mm petri dish containing embryonic medium, and the larvae were allowed to settle in the petri dish for 1 min. The movement of the zebrafish larvae was observed under the microscope for 1 min. […] The swim patterns were compared with the control group zebrafish larvae that were not treated with any inhibitor.

[9] = HT29, anoxia, 2 h exposure, 72 h regrowth, read-out: IC50A
[10] = HT29, normoxia, 2 h exposure, 72 h regrowth, read-out: IC50N
[11] = Homo sapiens, HCT-116, HCT116, anoxia, read-out: IC50A
[12] = Homo sapiens, HCT-116, HCT116, normoxia, read-out: IC50N
[13] = KI hCA I, mean from 3 different assays

| Compound | adverse effects on observable phenotypic parameters of the larvae (zebrafish larvae [1]) | Selectivity Ratio KI hCA II/KI hCA IX (hCA IX) | IC50 (HT29 cells [2]; [9]) | IC50 (HT29 cells [2]; [10]) | IC50 (HCT116 cells [3]; [11]) | IC50 (HCT116 cells [3]; [12]) | Ki (hCA I; [13]) | Ki (hCA II) | Ki (hCA IX) | other results |
| --- | --- | --- | --- | --- | --- | --- | --- | --- | --- | --- |
| (5-nitrothiophen-2-yl)methyl(4-sulfamoylphenethyl)carbamate [Compound 5b] | adverse effect on hatching, swim bladder development, the utilization of the yolk sac, and the shape of the body and induced pericardial edema | 1.31 |  |  |  |  |  |  |  | edema (zebrafish larvae [1]; as early as 2 days post exposure): induced edema; phenotypic defects (zebrafish larvae [1]; zebrafish larvae): phenotypic defects, such as edema and the absence of a swim bladder; Ki (hCA I; read-out: KI hCA I, mean from 3 different assays): 0.0647 µM; Ki (hCA II; read-out: KI hCA II, stopped flow CO2 hydrase assay, mean from 3 different assays): 0.0198 µM; Ki (hCA IX; read-out: KI hCA IX, stopped flow CO2 hydrase assay, mean from 3 different assays): 0.0151 µM |
| Cc1ncc([N+](=O)[O-])n1CCOC(=O)NCCc1ccc(S(N)(=O)=O)cc1 [Compound 2b, 2-(2-methyl-5-nitro-1H-imidazol-1-yl) ethyl (4-sulfamoylphenethyl) carbamate] |  | 0.35 | > 500 µM | > 500 µM | > 500 µM | > 500 µM | 0.0037 µM | 0.0043 µM | 0.0121 µM |  |
| NS(=O)(=O)c1ccc(CCNC(=O)OCc2ccc([N+](=O)[O-])o2)cc1 [Compound 4b, (5-nitrofuran-2-yl)methyl (4-sulfamoylphenethyl) carbamate] | adverse effect on hatching, swim bladder development, the utilization of the yolk sac, and the shape of the body and induced pericardial edema | 2.72 |  |  |  |  | 0.084 µM and 0.0838 µM | 0.0155 µM | 0.0057 µM | LC50 [4]: ~500 µM; mortality of the larvae (zebrafish embryos; 500 μM): significant mortality; swim bladder development (zebrafish larvae [1]; 250 μM): absence of a swim bladder; phenotypic defects (zebrafish larvae [1]; zebrafish larvae): phenotypic defects, such as edema and the absence of a swim bladder |
| Cc1ncc([N+](=O)[O-])n1CCNS(N)(=O)=O [DTP348] |  |  |  |  |  |  |  |  |  | neurotoxic effect (zebrafish larvae [5]): induced a neurotoxic effect; swim pattern (zebrafish larvae [5]): ataxic movement pattern |
| NS(=O)(=O)c1ccc(CNC(=O)OCCNC(=O)c2cc([N+](=O)[O-])ccc2N(CCCl)CCCl)cc1 [Compound 3c, 2-(2-(bis(2-chloroethyl)amino)-5-nitrobenzamido) ethyl (4-sulfamoylbenzyl)carbamate] |  | 0.94 | > 500 µM | > 500 µM | > 500 µM | > 500 µM | 2.18 µM | 0.0837 µM | 0.0887 µM |  |
| Cn1c(COC(=O)NCCc2ccc(S(N)(=O)=O)cc2)cnc1[N+](=O)[O-] [Compound 1b, (1-methyl-2-nitro-1H-imidazol-5-yl) methyl (4-sulfamoylphenethyl) carbamate] | minimal or no adverse effects |  | 204 µM | > 500 µM | 59.3 µM | 149 µM | 0.167 µM | 0.0306 µM | 0.0076 µM | HCR (IC50N/IC50A) (HT29 cells [2]; HT29, hypoxia selectivity cytotoxicity ratio): >2.44; IC50N (HT29 cells [2]; HT29, normoxia, 2 h exposure, 72 h regrowth): no detectable cytotoxicity; IC50 (HCT116 cells [3]; HCT116, anoxia, read-out: IC50A): 59.4 µM; clonogenic cell survival (HT29 cells [6]): did not reduce clonogenic cell survival; clonogenic cell survival (HCT116 cells [7]): did not reduce clonogenic cell survival; LC50 [4]: ~1400 µM; mortality of the larvae (zebrafish embryos; 1 mM, end of 5 days of exposure): did not cause any mortality; also recorded: no mortality observed; swim bladder development (zebrafish larvae [1]; 1000 μM): absence of a swim bladder; phenotypic abnormalities (zebrafish larvae [1]; zebrafish larvae, 1 mM): no or minimal phenotypic abnormalities; swim pattern (zebrafish larvae [8]): did not induce phonotypic abnormalities in the larvae as well as abnormal or ataxic swim movement |
| NS(=O)(=O)c1ccc(CCNC(=O)OCCNC(=O)c2cc([N+](=O)[O-])ccc2N(CCCl)CCCl)cc1 [Compound 3b, 2-(2-(bis(2-chloroethyl)amino)-5-nitrobenzamido) ethyl (4-sulfamoylphenethyl) carbamate] |  | 0.09 | > 500 µM | > 500 µM | 97.3 µM | 267 µM | 0.083 µM | 0.0031 µM | 0.0323 µM | cytotoxicity (HT29 cells [2]; HT29, normoxia and anoxia, tested concentrations): no cytotoxicity; HCR (IC50N/IC50A) (HCT116 cells [3]; HCT116, hypoxia selectivity cytotoxicity ratio): 2.7 and 2.74 |
| Cc1ncc([N+](=O)[O-])n1CCOC(=O)NCc1ccc(S(N)(=O)=O)cc1 [Compound 2c, 2-(2-methyl-5-nitro-1H-imidazol-1-yl) ethyl (4-sulfamoylbenzyl) carbamate] |  | 0.28 | > 500 µM | > 500 µM | > 500 µM | > 500 µM | 0.0023 µM | 0.004 µM | 0.0141 µM |  |
